Laboratory results from publication PMC10298275, “Antiproliferative Activity and Impact on Human Gut Microbiota of New O-Alkyl Derivatives of Naringenin and Their Oximes” (International Journal of Molecular Sciences, 2023).
Values after ≈ are worked out from the molar mass of the structure shown. Read-outs that look alike come from different tables or passages of the source.

Columns and labels:
[1] = tested on: Enterococcus faecalis ATCC 29212; test: MIC, microdilution method; assay type: cell-based; details: E. faecalis ATCC 29212, MHB, 24 h, 37 °C, tested 512 to 1 µg/mL
Procedure: (§1) Non-pathogenic reference strains representing the intestinal microbiome were used for the studies: Escherichia coli K12, Staphylococcus aureus ATCC 25923 and Enterococcus faecalis ATCC 29212. All strains were obtained from the collection of the Department of Microbiology at the Medical University of Wrocław.
(§2) The strains were received from the museum (−80 °C) and grown in tryptic soy broth (TSB, OXOID, Basingstoke, UK) under continuous shaking conditions (MaxQTM6000 incubator shaker, Thermo Scientific, Waltham, MA, USA) at 125 rpm at 37 °C. Then, they were moved to the growth media, namely tryptic soy agar (TSA, OXOID, Basingstoke, UK) and MacConkey agar (MC, Millipore, Darmstadt, Germany) for S. aureus or E. faecalis and E. coli, respectively.
(§3) A fresh 18–24 h culture was used for each study. For this purpose, a culture with a density of 1.5 × 10^8 CFU/mL in Mueller–Hinton broth (MHB, OXOID, Basingstoke, UK) was prepared and used for further microdilution studies.
(§4) The antimicrobial activity of the O-alkyl derivatives of naringenin and their oximes was tested in vitro using the microdilution method, showing the minimum inhibitory concentration (MIC), in accordance with the recommendations of the European Antimicrobial Susceptibility Testing Committee EUCAST [44]. MICs were determined in 96-well microdilution plates. The tests were carried out in MHB medium. The O-alkyl derivatives of naringenin and their oximes were tested in the concentration range of 512 to 1 µg/mL in a geometric process in MHB medium. The final concentration of the test strains in each test well was 5 × 10^5 CFU/mL. MICs were read after 18 h (for E. coli and S. aureus) and 24 h (for E. faecalis) incubation at 37 °C.
(§5) A strain growth control (tested strain in medium), background control for tested compounds (naringenin derivatives in MHB), medium control (only pure MHB) and compound solvent control (DMSO at test compound concentration, strain and MHB) were set for each experiment. Each test was set up with three independent experiments, each as three separate replicates.
(§6) The […], OD600, was measured in a plate reader (ASYS UVM340, BIOCHROM Ltd., Cambridge, UK). The background control of the tested compounds and the clean medium were included in the absorbance results.

Escherichia coli K12 [2] = test: MIC, microdilution method; assay type: cell-based; details: Escherichia coli; E. coli K12; MHB, 18 h, 37 °C; tested 512 to 1 µg/mL; read-out: MIC
Procedure: as §1, §2, §3, §4, §5, §6

[3] = tested on: Staphylococcus aureus ATCC 25923; test: MIC, microdilution method; assay type: cell-based; details: S. aureus ATCC 25923, MHB, 18 h, 37 °C, tested 512 to 1 µg/mL
Procedure: as §1, §2, §3, §4, §5, §6

[4] = tested on: Enterococcus faecalis ATCC 29212; test: MBC assay; assay type: cell-based; details: Enterococcus faecalis, ATCC29212; E. faecalis ATCC 29212; read-out: MBC
Procedure: (§7) The minimum bactericidal concentration (MBC) was tested for all naringenin derivatives. First, 10 µL of medium was taken from the plate, on which the MIC was determined for the MIC value, the value below and the two values above. This volume was transferred to TSA or MC agar. After 18–24 h (depending on strain) incubation at 37 °C, colonies were counted. The concentration of test compounds at which no bacterial growth was observed was defined as the MBC value. Each experiment was repeated 3 times.

Escherichia coli K12 [5] = test: MBC assay; assay type: cell-based; details: Escherichia coli; E. coli K12; read-out: MBC
Procedure: as §7

[6] = tested on: Staphylococcus aureus ATCC 25923; test: MBC assay; assay type: cell-based; details: Staphylococcus aureus, ATCC25923; S. aureus ATCC 25923; read-out: MBC
Procedure: as §7

SRB assay, cytotoxicity [7] = assay type: cell-based, human; details: human, HT-29 cells; HT-29, SRB, 24 h exposure, three independent repeats; read-out: Cytotoxicity (IC50 ± SD)
Procedure: (§8) The HT-29 cells (ATCC, Manassas, VA, USA) were cultured within α-MEM (IIET PAS, Wrocław, Poland) supplemented with 10% fetal bovine serum (Sigma, St. Louis, MO, USA), antimycotic (100 μg/mL penicillin, 100 μg/mL streptomycin and 0.25 μg/mL amphotericin) (Sigma) and 2 mM glutamine (Sigma). The 3T3-L1 cells (ATCC, Manassas, VA, USA) were cultivated using DMEM high-glucose medium (IIET PAS, Wrocław, Poland) supplemented as above. Both cell lines were cultured at 37 °C in an atmosphere of 5% CO2.
(§9) The sulforhodamine B (SRB) assay was performed according to a previously published protocol. Briefly, 1 × 10^4 HT-29 or 5 × 10^3 3T3-L1 cells were seeded into 96-well plates. After attaching to the plate surface, the cells were incubated with 100, 75, 50, 25, 10 or 1 µg/mL of the investigated compounds for 24 h. After this time, proteins were precipitated with trichloroacetic acid and stained with SRB. The absorbance was measured at 560 nm using a GloMax Discover Microplate Reader (Promega, Madison, WI, USA).

SRB assay, cytotoxicity [8] = assay type: cell-based, mouse; details: mouse, 3T3-L1 cells; 3T3-L1, SRB, 24 h exposure, three independent repeats; read-out: Cytotoxicity (IC50 ± SD)
Procedure: as §8, §9

HT-29 cells [9] = test: MTT assay, cell viability; assay type: cell-based, human; details: 24 h; for effect on colon adenocarcinoma cells (viability, MTT): HT-29, highest concentration 100 µg/mL; for reduction in cell viability: HT-29, MTT, 10 µg/mL dose
Procedure: as §8
First, 1 × 10^4 HT-29 cells or 5 × 10^3 3T3-L1 cells were seeded into a 96-well plate and incubated for one night. Then, cells were treated with different concentrations of the investigated compounds within 24 h. Afterwards, the medium was replaced with a fresh medium containing 0.5 mg/mL of 3-(4,5-dimethylthiazol-2-yl)-2,5-diphenyl-2H-tetrazolium bromide (MTT, Sigma) and incubated for 2 h at 37 °C. After removing the medium, the formazan salts were dissolved in dimethyl sulfoxide (DMSO, Sigma), and the absorbance of the solution was measured at 560 nm using a plate reader.

HT-29 cells [10] = test: SRB assay, cytotoxicity; assay type: cell-based, human; details: HT-29, SRB, up to 100 µg/mL
Procedure: as §8, §9

[11] = Enterococcus faecalis, ATCC29212, read-out: MIC
[12] = Staphylococcus aureus, ATCC25923, read-out: MIC

Compound	MIC [1, 11]	MIC (Escherichia coli K12 [2])	MIC [3, 12]	melting point	MIC [3]	MIC [1]	MBC [4]	MBC (Escherichia coli K12 [5])	MBC [6]	IC50 at 24 h (SRB assay, cytotoxicity [7])	IC50 at 24 h (SRB assay, cytotoxicity [8])	effect on colon adenocarcinoma cells (viability, MTT) (HT-29 cells [9])	effect on the proliferation of the HT-29 cell line (HT-29 cells [10])	reduction in cell viability (HT-29 cells [9])
CCCCCCOc1cc(O)c2c(c1)O[C@H](c1ccc(O)cc1)CC2=O [A1, 7-O-hexylnaringenin]	16 µg/mL (≈ 44.9 µM)	> 512 µg/mL	16 µg/mL (≈ 44.9 µM)				> 512 µg/mL	> 512 µg/mL	> 512 µg/mL	14.3 ± 0.84 µg/mL (≈ 40.1 µM)	10.8 ± 1.1 µg/mL (≈ 30.4 µM)	completely inhibited		
CCCCCCCOc1cc(O)c2c(c1)O[C@H](c1ccc(O)cc1)CC2=O [A3, 7-O-Heptylnaringenin]	32 µg/mL (≈ 86.4 µM)	> 512 µg/mL	16 µg/mL (≈ 43.2 µM)	114 to 115 °C			> 512 µg/mL	> 512 µg/mL	> 512 µg/mL	14.2 ± 0.56 µg/mL (≈ 38.3 µM)	7.61 ± 1.2 µg/mL (≈ 20.5 µM)	completely inhibited		
CCCCCCCOc1ccc([C@@H]2CC(=O)c3c(O)cc(OCCCCCCC)cc3O2)cc1 [A4, 7,4′-Di-O-heptylnaringenin]	32 µg/mL (≈ 68.3 µM)	> 512 µg/mL	> 512 µg/mL	74 to 75 °C	>512 (>512) µg/mL		> 512 µg/mL	> 512 µg/mL	> 512 µg/mL	> 100 µg/mL	> 100 µg/mL	weak	no effect on the proliferation	
CCCCCCCCOc1cc(O)c2c(c1)O[C@H](c1ccc(O)cc1)CC2=O [A5, 7-O-Octylnaringenin]	16 µg/mL (≈ 41.6 µM)	> 512 µg/mL	8 µg/mL (≈ 20.8 µM)	111 to 113 °C			> 512 µg/mL	> 512 µg/mL	> 512 µg/mL	14.63 ± 0.13 µg/mL (≈ 38.1 µM)	8.86 ± 0.67 µg/mL (≈ 23 µM)	completely inhibited		
CCCCCCCCCOc1cc(O)c2c(c1)O[C@H](c1ccc(O)cc1)CC2=O [A7, 7-O-Nonylnaringenin]	16 µg/mL (≈ 40.2 µM)	> 512 µg/mL	16 µg/mL (≈ 40.2 µM)	115 to 116 °C			> 512 µg/mL	> 512 µg/mL	> 512 µg/mL	15 ± 0.41 µg/mL (≈ 37.7 µM)	8.65 ± 0.71 µg/mL (≈ 21.7 µM)	completely inhibited		

Now from value to compound, other results behind:

MIC [1, 11]	MIC (Escherichia coli K12 [2])	MIC [3, 12]	melting point	MIC [3]	MIC [1]	Compound	MBC [4]	MBC (Escherichia coli K12 [5])	MBC [6]	IC50 at 24 h (SRB assay, cytotoxicity [7])	IC50 at 24 h (SRB assay, cytotoxicity [8])	effect on colon adenocarcinoma cells (viability, MTT) (HT-29 cells [9])	effect on the proliferation of the HT-29 cell line (HT-29 cells [10])	reduction in cell viability (HT-29 cells [9])
16 µg/mL (≈ 43.1 µM)	> 512 µg/mL	8 µg/mL (≈ 21.5 µM)				CCCCCCOc1cc(O)c2c(c1)O[C@H](c1ccc(O)cc1)CC2=NO [B1, 7-O-hexylnaringenin oxime]	256 µg/mL (≈ 689 µM)	> 512 µg/mL	32 µg/mL (≈ 86.2 µM)	11.3 ± 1.63 µg/mL (≈ 30.5 µM)	8.3 ± 0.72 µg/mL (≈ 22.3 µM)			more than 50%
16 µg/mL (≈ 41.5 µM)	> 512 µg/mL	64 µg/mL (≈ 166 µM)	186 to 187 °C			CCCCCCCOc1cc(O)c2c(c1)O[C@H](c1ccc(O)cc1)CC2=NO [B3, 7-O-Heptylnaringenin oxime]	512 µg/mL (≈ 1330 µM)	> 512 µg/mL	128 µg/mL (≈ 332 µM)	11.3 ± 0.81 µg/mL (≈ 29.3 µM)	7.77 ± 1.11 µg/mL (≈ 20.2 µM)			more than 50%
> 512 µg/mL	> 512 µg/mL	> 512 µg/mL	82 to 83 °C		>512 (>512) µg/mL	CCCCCCCOc1ccc([C@@H]2CC(=NO)c3c(O)cc(OCCCCCCC)cc3O2)cc1 [B4, 7,4′-Di-O-heptylnaringenin oxime]	> 512 µg/mL	> 512 µg/mL	> 512 µg/mL	> 100 µg/mL	> 100 µg/mL		no effect on the proliferation	
16 µg/mL (≈ 40.1 µM)	> 512 µg/mL	256 µg/mL (≈ 641 µM)	183 to 185 °C			CCCCCCCCOc1cc(O)c2c(c1)O[C@H](c1ccc(O)cc1)CC2=NO [B5, 7-O-Octylnaringenin oxime]	256 µg/mL (≈ 641 µM)	> 512 µg/mL	> 512 µg/mL	9.96 ± 1.13 µg/mL (≈ 24.9 µM)	7.1 ± 1.57 µg/mL (≈ 17.8 µM)			more than 50%
> 512 µg/mL	> 512 µg/mL	> 512 µg/mL	85 to 86 °C		>512 (>512) µg/mL	CCCCCCCCOc1ccc([C@@H]2CC(=NO)c3c(O)cc(OCCCCCCCC)cc3O2)cc1 [B6, 7,4′-Di-O-octylnaringenin oxime]	> 512 µg/mL	> 512 µg/mL	> 512 µg/mL	> 100 µg/mL	> 100 µg/mL		no effect on the proliferation	
8 µg/mL (≈ 19.3 µM)	> 512 µg/mL	128 µg/mL (≈ 310 µM)	176 to 178 °C			CCCCCCCCCOc1cc(O)c2c(c1)O[C@H](c1ccc(O)cc1)CC2=NO [B7, 7-O-Nonylnaringenin oxime]	> 512 µg/mL	> 512 µg/mL	> 512 µg/mL	11.2 ± 1.27 µg/mL (≈ 27.2 µM)	6.08 ± 0.64 µg/mL (≈ 14.7 µM)			more than 50%
> 512 µg/mL	> 512 µg/mL	> 512 µg/mL	87 to 88 °C		>512 (>512) µg/mL	CCCCCCCCCOc1ccc([C@@H]2CC(=NO)c3c(O)cc(OCCCCCCCCC)cc3O2)cc1 [B8, 7,4′-Di-O-nonylnaringenin oxime]	> 512 µg/mL	> 512 µg/mL	> 512 µg/mL	> 100 µg/mL	> 100 µg/mL		no effect on the proliferation	
> 512 µg/mL	> 512 µg/mL	> 512 µg/mL	95 to 96 °C		>512 (>512) µg/mL	CCCCCCCCCCCOc1ccc([C@@H]2CC(=NO)c3c(O)cc(OCCCCCCCCCCC)cc3O2)cc1 [B10, 7,4′-Di-O-undecylnaringenin oxime]	> 512 µg/mL	> 512 µg/mL	> 512 µg/mL	> 100 µg/mL	> 100 µg/mL		no effect on the proliferation	
